Patent publication US12233047B2, “Pharmaceutical combination and use thereof” (ASCENTAGE PHARMA (SUZHOU) CO., LTD., priority 2019, dated 2025)
Residue numbers refer to the chain shown, from its start.

What was measured:
FLT3 (D835Y) = biological target: T1, FLT3 (D835Y) (Homo sapiens, UniProt P36888, D835Y); experiment: KINOMEscan kinase binding assay, FLT3 (D835Y)
T1 construct: host or cells: T7 phage in E. coli (BL21-derived) or HEK-293
T1 sequence (P36888 27-993 D835Y): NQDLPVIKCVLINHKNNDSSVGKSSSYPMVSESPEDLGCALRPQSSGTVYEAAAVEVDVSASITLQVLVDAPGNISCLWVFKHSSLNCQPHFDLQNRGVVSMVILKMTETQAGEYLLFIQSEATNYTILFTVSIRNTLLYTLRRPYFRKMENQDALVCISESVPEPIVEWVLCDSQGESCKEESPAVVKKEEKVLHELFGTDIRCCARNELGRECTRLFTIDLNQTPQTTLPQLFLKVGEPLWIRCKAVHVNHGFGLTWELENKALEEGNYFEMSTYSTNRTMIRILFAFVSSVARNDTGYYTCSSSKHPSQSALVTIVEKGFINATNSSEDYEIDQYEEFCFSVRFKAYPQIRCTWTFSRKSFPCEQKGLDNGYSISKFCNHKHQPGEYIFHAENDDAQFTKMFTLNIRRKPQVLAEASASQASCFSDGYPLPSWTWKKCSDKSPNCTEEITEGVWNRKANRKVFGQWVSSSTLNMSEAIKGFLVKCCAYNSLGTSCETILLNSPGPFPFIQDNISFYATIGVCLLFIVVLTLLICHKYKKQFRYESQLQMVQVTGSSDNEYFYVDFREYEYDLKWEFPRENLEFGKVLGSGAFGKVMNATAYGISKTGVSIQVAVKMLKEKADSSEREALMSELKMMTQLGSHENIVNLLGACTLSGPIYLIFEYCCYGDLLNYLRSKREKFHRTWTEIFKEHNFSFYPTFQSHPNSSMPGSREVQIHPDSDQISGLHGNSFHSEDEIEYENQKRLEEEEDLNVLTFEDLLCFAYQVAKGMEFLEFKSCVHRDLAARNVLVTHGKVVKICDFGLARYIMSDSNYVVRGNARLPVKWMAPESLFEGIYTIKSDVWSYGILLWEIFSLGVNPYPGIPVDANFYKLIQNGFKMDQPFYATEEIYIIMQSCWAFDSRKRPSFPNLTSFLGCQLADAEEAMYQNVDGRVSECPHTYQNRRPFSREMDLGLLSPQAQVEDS
Experimental: (§1) The kinase assay was conducted using KINOMEscan™.
(§2) Kinase-tagged T7 phage strains were grown in parallel in 24-well blocks in an E. coli host derived from the BL21 strain. E. coli were grown to log-phase and infected with T7 phage from a frozen stock (multiplicity of infection=0.4) and incubated with shaking at 32° C. until lysis (90-150 minutes). The lysates were centrifuged (6,000×g) and filtered (0.2 μm) to remove cell debris. The remaining kinases were produced in HEK-293 cells and subsequently tagged with DNA for qPCR detection. Streptavidin-coated magnetic beads were treated with biotinylated small molecule ligands for 30 minutes at room temperature to generate affinity resins for kinase assays. The liganded beads were blocked with excess biotin and washed with blocking buffer (SeaBlock (Pierce), 1% BSA, 0.05% Tween 20, 1 mM DTT) to remove unbound ligand and to reduce non-specific phage binding. Binding reactions were assembled by combining kinases, liganded affinity beads, and test compound (Compound 23) in 1× binding buffer (20% SeaBlock, 0.17×PBS, 0.05% Tween 20, 6 mM DTT). Test compound were prepared as 40× stocks in 100% DMSO and directly diluted into the assay. All reactions were performed in polypropylene 384-well plates in a final volume of 0.04 ml. […] The kinase concentration in the eluates was measured by qPCR. […]

FLT3 (K663Q) = biological target: T2, FLT3 (K663Q) (Homo sapiens, UniProt P36888, K663Q); experiment: KINOMEscan kinase binding assay, FLT3 (K663Q)
T2 construct: host or cells: T7 phage in E. coli (BL21-derived) or HEK-293
T2 sequence (P36888 27-993 K663Q): T1 sequence (P36888 27-993 D835Y) with K637Q, Y809D
Experimental: as §1, §2

Compound: Cc1ccc(C(=O)Nc2ccc(CN3CCN(C)CC3)c(C(F)(F)F)c2)cc1C#Cc1cnc2[nH]ncc2c1 [Compound 23, 3-(2-(1H-pyrazolo[3,4-b]pyridin-5-yl)ethynyl)-4-methyl-N-(4-((4-methylpiperazin-1-yl)methyl)-3-(trifluoromethyl)phenyl)benzamide]
- % Ctrl@10 nM (FLT3 (D835Y); 10 nM): 42 % Ctrl
- % Ctrl@100 nM (FLT3 (D835Y); 100 nM): 17 % Ctrl
- % Ctrl@10 nM (FLT3 (K663Q); 10 nM): 5 % Ctrl
- % Ctrl@100 nM (FLT3 (K663Q); 100 nM): 0.6 % Ctrl
